According to patent US10966994B2, “Thromboxane receptor antagonists” (ATXA THERAPEUTICS LIMITED, priority 2015, dated 2021):

Legend:
TPα = molecular target: T1, TPα (Homo sapiens, UniProt P21731); test: 8-iso-PGF2α-mediated calcium mobilization in HEK.TPα cells; type: cell-based; conditions: 10 μM 8-iso-PGF2α, estimated IC50, read-out: IC50 values for inhibition of 8-iso-PGF2α-mediated [Ca2+]i mobilization, TPα
T1 construct: expressed in transfected cells; host or cells: HEK 293 (HEK.TPα, isolate HR #4)
T1 sequence (P21731 1-343): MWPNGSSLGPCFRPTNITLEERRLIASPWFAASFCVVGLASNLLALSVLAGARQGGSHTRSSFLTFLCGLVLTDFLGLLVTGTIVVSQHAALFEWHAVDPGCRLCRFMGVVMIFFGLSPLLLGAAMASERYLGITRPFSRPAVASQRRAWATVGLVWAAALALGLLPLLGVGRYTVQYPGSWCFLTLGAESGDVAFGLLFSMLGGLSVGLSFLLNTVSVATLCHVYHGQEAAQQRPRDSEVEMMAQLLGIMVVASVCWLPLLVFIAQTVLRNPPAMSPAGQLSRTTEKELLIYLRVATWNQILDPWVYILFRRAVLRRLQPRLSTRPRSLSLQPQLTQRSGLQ
From the text: (§1) Effect of NTP42-NTP48 on 8-iso-PGF2α-mediated Calcium Mobilization In addition, to assessment of the compounds to antagonise U46619-mediated responses, the ability of NTP42 & NTP43 to inhibit the partial TP agonist 8-iso-PGF2α has been examined through calcium mobilization assays in HEK.TPα and HEK.TPβ cells.
(§2) Data is presented as the mean (±S.E.M.) percentage of the agonist-induced response in vehicle-treated cells (Percentage of Control; %) and represents data from at least 3 independent experiments were cells were treated in duplicate, except NTP48.

TPβ = molecular target: T2, TPβ (Homo sapiens, UniProt P21731); test: 8-iso-PGF2α-mediated calcium mobilization in HEK.TPβ cells; type: cell-based; conditions: 10 μM 8-iso-PGF2α, estimated IC50, read-out: IC50 values for inhibition of 8-iso-PGF2α-mediated [Ca2+]i mobilization, TPβ
T2 construct: expressed in transfected cells; host or cells: HEK 293 (HEK.TPβ, isolate EM #8)
From the text: as §1, §2

DP1 receptor = molecular target: T3, DP1 receptor (Homo sapiens, UniProt Q13258); test: Specificity testing, DP1 receptor signaling; type: cell-based
T3 sequence (Q13258 1-359): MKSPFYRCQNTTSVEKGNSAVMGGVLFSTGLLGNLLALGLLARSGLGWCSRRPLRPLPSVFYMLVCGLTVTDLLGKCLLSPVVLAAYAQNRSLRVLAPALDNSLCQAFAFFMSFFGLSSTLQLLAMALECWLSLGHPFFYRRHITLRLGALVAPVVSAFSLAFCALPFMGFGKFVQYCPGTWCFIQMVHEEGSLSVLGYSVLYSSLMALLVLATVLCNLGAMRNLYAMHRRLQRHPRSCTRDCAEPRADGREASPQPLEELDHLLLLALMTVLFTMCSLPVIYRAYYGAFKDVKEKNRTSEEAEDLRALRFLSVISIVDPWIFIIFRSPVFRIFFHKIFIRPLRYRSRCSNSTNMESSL
Protocol: (§3) There is no or minimal inhibition of the majority of the non-TP-mediated signaling observed in the presence of either NTP42 & NTP48. Where there is inhibition of signaling, it is observed at the 10 μM concentration only. […] Compared to NTP42, NTP48 has less of an effect on the signaling of the non-TP prostanoid receptors and therefore, may be considered more favorable in this context.

EP1 receptor = molecular target: T4, EP1 receptor (Homo sapiens, UniProt P34995); test: Specificity testing, EP1 receptor signaling; type: cell-based
T4 sequence (P34995 1-402): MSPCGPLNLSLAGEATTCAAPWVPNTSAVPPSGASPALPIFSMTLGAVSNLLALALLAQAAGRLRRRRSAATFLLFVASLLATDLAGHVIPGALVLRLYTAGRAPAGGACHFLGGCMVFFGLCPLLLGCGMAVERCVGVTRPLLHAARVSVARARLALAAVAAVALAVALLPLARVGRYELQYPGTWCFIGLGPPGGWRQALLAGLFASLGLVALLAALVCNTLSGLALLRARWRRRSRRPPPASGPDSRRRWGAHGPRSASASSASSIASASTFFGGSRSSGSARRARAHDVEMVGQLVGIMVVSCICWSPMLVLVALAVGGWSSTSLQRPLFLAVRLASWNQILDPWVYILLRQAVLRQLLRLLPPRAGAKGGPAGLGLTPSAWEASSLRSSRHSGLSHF
Protocol: as §3

EP2 receptor = EP2 receptor (Homo sapiens, UniProt P43116); test: Specificity testing, EP2 receptor signaling; type: cell-based
EP3 receptor = molecular target: T5, EP3 receptor (Homo sapiens, UniProt P43115); test: Specificity testing, EP3 receptor signaling; type: cell-based
T5 sequence (P43115 1-390): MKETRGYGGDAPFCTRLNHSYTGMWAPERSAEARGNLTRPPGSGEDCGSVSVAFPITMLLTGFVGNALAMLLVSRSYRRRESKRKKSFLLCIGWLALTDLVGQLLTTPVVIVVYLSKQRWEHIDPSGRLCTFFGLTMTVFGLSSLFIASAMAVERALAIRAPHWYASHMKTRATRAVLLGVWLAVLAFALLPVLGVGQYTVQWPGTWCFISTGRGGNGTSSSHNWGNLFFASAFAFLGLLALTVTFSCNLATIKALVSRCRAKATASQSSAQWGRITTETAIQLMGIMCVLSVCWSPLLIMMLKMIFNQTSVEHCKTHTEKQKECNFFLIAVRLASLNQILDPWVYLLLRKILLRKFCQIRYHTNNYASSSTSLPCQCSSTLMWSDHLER

EP4 receptor = EP4 receptor (Homo sapiens, UniProt P35408); test: Specificity testing, EP4 receptor signaling; type: cell-based
Protocol: as §3

[1] = test system: purinergic (ADP) receptors; test: Specificity testing, purinergic (ADP) receptor signaling
[2] = molecular target: T6, thrombin (PAR1) receptors (Homo sapiens, UniProt P25116); test: Specificity testing, thrombin (PAR1) receptor signaling
T6 sequence (P25116 22-425): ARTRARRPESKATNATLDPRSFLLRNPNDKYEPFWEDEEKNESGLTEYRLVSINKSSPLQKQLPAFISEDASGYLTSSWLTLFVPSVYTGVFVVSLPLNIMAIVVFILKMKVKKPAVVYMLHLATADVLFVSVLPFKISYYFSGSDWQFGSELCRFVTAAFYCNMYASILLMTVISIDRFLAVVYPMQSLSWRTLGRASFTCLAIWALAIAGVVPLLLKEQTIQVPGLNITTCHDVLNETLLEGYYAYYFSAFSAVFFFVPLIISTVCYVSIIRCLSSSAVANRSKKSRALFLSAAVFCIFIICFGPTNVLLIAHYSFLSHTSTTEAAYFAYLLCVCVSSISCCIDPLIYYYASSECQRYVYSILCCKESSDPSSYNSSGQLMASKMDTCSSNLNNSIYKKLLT

Cell permeability = type: in vitro ADME
[3] = maximal inhibition, at 10 μM only

Sequence of EP2 receptor (P43116 whole entry): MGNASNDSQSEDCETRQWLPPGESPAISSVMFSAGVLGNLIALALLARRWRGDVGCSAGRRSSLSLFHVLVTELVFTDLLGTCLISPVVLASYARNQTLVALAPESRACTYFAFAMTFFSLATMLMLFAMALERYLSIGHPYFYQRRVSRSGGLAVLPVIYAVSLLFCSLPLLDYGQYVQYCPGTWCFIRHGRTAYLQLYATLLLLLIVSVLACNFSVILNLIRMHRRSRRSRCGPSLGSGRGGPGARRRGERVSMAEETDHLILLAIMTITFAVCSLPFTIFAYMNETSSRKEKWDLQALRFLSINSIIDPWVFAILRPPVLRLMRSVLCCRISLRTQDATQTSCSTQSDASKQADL
Sequence of EP4 receptor (P35408 whole entry): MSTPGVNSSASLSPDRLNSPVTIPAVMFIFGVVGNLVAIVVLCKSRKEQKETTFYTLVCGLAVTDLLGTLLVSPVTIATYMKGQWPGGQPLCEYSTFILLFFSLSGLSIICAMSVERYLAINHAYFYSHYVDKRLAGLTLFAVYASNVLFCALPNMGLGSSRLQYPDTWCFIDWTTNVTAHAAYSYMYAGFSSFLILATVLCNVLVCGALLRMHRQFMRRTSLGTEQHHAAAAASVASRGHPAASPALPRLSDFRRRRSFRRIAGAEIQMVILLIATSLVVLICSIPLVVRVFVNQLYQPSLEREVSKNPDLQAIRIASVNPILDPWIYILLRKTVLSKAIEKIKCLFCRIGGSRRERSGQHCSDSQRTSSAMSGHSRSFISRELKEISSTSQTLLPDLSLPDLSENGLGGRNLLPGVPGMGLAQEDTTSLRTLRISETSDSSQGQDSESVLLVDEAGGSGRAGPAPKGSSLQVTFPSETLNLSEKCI
T2 sequence (P21731 1-407 isoform P21731-2): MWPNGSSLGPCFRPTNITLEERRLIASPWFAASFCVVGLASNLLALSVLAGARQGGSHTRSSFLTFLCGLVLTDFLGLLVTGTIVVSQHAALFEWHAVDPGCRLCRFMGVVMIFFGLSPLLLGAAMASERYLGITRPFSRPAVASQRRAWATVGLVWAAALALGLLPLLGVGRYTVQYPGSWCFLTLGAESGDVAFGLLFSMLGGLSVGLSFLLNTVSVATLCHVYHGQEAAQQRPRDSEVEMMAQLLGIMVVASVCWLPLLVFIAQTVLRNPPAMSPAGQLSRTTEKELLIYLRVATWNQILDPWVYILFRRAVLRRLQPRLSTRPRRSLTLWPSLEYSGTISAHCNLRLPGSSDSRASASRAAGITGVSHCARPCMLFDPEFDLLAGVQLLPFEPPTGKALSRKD

| IC50 (TPα) [µM] | IC50 (TPβ) [µM] | cell permeability (Cell permeability) | Structure (SMILES) | effect on the DP1 receptor (DP-mediated signaling) (DP1 receptor) | effect on the EP1 receptor (EP1 receptor) | effect on the EP2 receptor (EP2 receptor) | effect on the EP3 receptor (EP3 receptor) | effect on the EP4 receptor (EP4 receptor) | effect on signaling through purinergic (ADP) receptors [1] | effect on signaling through thrombin (PAR1) receptors [2] | percentage reduction in responses, DP1 (DP1 receptor; [3]) [%] | percentage reduction in responses, EP1 (EP1 receptor; [3]) [%] | percentage reduction in responses, EP4 (EP4 receptor; [3]) [%] | toxicity (Toxicity) |
| --- | --- | --- | --- | --- | --- | --- | --- | --- | --- | --- | --- | --- | --- | --- |
| 0.103 ± 0.0111 | 0.058 ± 0.00631 |  | COc1ccc(-c2cccc(Oc3ccc(C#N)cc3S(=O)(=O)NC(=O)NC(C)(C)C)c2)cc1 [NTP4, reference compound] | like TP20 and NTP4, neither NTP42, NTP43 nor NTP48 exhibited any effect | like TP20 and NTP4, neither NTP42, NTP43 nor NTP48 exhibited any effect | like TP20 and NTP4, neither NTP42, NTP43 nor NTP48 exhibited any effect | like TP20 and NTP4, neither NTP42, NTP43 nor NTP48 exhibited any effect | like TP20 and NTP4, neither NTP42, NTP43 nor NTP48 exhibited any effect | like TP20 and NTP4, neither NTP42, NTP43 nor NTP48 exhibited any effect | like TP20 and NTP4, neither NTP42, NTP43 nor NTP48 exhibited any effect |  |  |  |  |
| 0.0307 ± 0.00505 | 0.009 ± 0.0016 | favorable cell permeability | CC(C)(C)NC(=O)NS(=O)(=O)c1cc(C#N)ccc1Oc1cccc(-c2ccc(OC(F)(F)F)cc2)c1 [NTP43] | not to exhibit any effect | not to exhibit any effect | not to exhibit any effect | not to exhibit any effect | not to exhibit any effect | neither NTP42, NTP43 nor NTP48 exhibited any effect | neither NTP42, NTP43 nor NTP48 exhibited any effect |  |  |  | minimal toxicity |
| 0.0293 ± 0.00387 | 0.0154 ± 0.00216 | favorable cell permeability | CN(C)C(=O)c1ccc(-c2cccc(Oc3ccc(C#N)cc3S(=O)(=O)NC(=O)NC(C)(C)C)c2)cc1 [NTP48, 4-[3-[2-(tert-Butylcarbamoylsulfamoyl)-4-cyano-phenoxy]phenyl]-N,N-dimethyl-benzamide] | no effect | no effect | no effect | no effect | no effect | neither NTP42, NTP43 nor NTP48 exhibited any effect | neither NTP42, NTP43 nor NTP48 exhibited any effect |  |  |  | minimal toxicity |

| Structure (SMILES) | IC50 (TPα) [µM] | IC50 (TPβ) [µM] | cell permeability (Cell permeability) | effect on the DP1 receptor (DP-mediated signaling) (DP1 receptor) | effect on the EP1 receptor (EP1 receptor) | effect on the EP2 receptor (EP2 receptor) | effect on the EP3 receptor (EP3 receptor) | effect on the EP4 receptor (EP4 receptor) | effect on signaling through purinergic (ADP) receptors [1] | effect on signaling through thrombin (PAR1) receptors [2] | percentage reduction in responses, DP1 (DP1 receptor; [3]) [%] | percentage reduction in responses, EP1 (EP1 receptor; [3]) [%] | percentage reduction in responses, EP4 (EP4 receptor; [3]) [%] | toxicity (Toxicity) |
| --- | --- | --- | --- | --- | --- | --- | --- | --- | --- | --- | --- | --- | --- | --- |
| CC(C)(C)NC(=O)NS(=O)(=O)c1cc(C#N)ccc1Oc1cccc(-c2ccc(OC(F)F)cc2)c1 [NTP42] | 0.0128 ± 0.00142 | 0.008 ± 0.001 | favorable cell permeability | no effect | no effect | no effect | no effect | no effect | neither NTP42, NTP43 nor NTP48 exhibited any effect | neither NTP42, NTP43 nor NTP48 exhibited any effect | < 30 | ~55 | 40 | minimal toxicity |
| COc1ccc(-c2cccc(Oc3ccc([N+](=O)[O-])cc3S(=O)(=O)NC(=O)NC(C)(C)C)c2)cc1 [TP20, reference compound] | 0.0464 ± 0.00424 | 0.017 ± 0.00212 |  | like TP20 and NTP4, neither NTP42, NTP43 nor NTP48 exhibited any effect | like TP20 and NTP4, neither NTP42, NTP43 nor NTP48 exhibited any effect | like TP20 and NTP4, neither NTP42, NTP43 nor NTP48 exhibited any effect | like TP20 and NTP4, neither NTP42, NTP43 nor NTP48 exhibited any effect | like TP20 and NTP4, neither NTP42, NTP43 nor NTP48 exhibited any effect | like TP20 and NTP4, neither NTP42, NTP43 nor NTP48 exhibited any effect | like TP20 and NTP4, neither NTP42, NTP43 nor NTP48 exhibited any effect |  |  |  |  |
